Data reported in patent EP1382597A2, “Steroid receptor modulator compounds and methods” (LIGAND PHARMACEUTICALS, INC., priority 1994, dated 1996).

Experiments:
human PR-B [1] = target: T1, human PR-B (Homo sapiens, UniProt P06401); experiment: Co-transfection assay, PR agonist activity; format: cell-based; conditions: for Emax: CV-1, read-out: PR Agonist CV-1 Cells Efficacy (%);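 for all read-outs here: CV-1 cells (African green monkey kidney) co-transfected with receptor plasmid and hormone-responsive firefly luciferase reporter, agonism read as compound-dependent rise in luciferase signal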
T1 construct: expressed in transfected cells; host or cells: CV-1 cells (African green monkey kidney fibroblasts), transient transfection
T1 sequence (P06401 1-933): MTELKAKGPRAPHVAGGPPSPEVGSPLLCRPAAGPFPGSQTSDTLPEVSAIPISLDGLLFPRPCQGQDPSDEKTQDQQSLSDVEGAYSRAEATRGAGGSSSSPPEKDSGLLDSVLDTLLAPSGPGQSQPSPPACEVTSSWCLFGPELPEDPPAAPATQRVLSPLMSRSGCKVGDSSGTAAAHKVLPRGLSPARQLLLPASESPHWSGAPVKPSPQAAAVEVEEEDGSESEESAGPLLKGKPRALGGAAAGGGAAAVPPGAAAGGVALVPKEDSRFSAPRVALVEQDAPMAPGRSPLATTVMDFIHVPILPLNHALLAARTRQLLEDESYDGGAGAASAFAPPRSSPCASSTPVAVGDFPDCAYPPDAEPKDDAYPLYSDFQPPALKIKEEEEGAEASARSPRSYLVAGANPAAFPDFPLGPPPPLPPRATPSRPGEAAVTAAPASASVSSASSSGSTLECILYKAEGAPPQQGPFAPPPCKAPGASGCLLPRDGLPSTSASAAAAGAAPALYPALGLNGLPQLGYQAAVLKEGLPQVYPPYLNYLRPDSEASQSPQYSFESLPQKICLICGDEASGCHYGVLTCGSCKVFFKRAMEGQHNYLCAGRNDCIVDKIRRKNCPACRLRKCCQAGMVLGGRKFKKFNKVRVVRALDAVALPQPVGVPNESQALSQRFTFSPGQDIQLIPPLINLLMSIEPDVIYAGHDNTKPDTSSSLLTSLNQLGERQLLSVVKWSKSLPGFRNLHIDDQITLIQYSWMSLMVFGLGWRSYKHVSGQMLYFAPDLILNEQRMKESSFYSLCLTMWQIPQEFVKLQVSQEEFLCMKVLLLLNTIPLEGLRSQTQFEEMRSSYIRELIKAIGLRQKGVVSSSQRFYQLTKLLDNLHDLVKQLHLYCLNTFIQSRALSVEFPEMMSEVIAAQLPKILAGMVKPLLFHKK

human PR-B [2] = target: T1, human PR-B; experiment: Co-transfection assay, PR antagonist activity; format: cell-based; conditions: for Emax: CV-1, read-out: PR Antagonist CV-1 Cells Efficacy (%);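 for all read-outs here: monkey kidney fibroblasts co-transfected with receptor expression plasmid and hormone-responsive luciferase reporter, antagonism read as reduced luciferase signal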

Compound	Emax (human PR-B [1]) [%]	Emax (human PR-B [2]) [%]	PR Agonist CV-1 Cells Efficacy (%) (human PR-B [1]; cv-1 cells)	PR Agonist CV-1 Cells Efficacy (%) (human PR-B [1]; CV-1 cells, percent maximal response relative to reference agonist progesterone)	PR Antagonist CV-1 Cells Efficacy (%) (human PR-B [2]; CV-1 cells, percent maximal inhibition, progesterone at its EC50)
CC1=CC(C)(C)Nc2ccc(-c3csc(C#N)c3)cc21 [Compound 452, 6-(5-Cyano-3-thienyl)-1,2-dihydro-2,2,4-trimethylquinoline]	119	70	–	–	–
CC1(C)Nc2ccc3c(c2C(=O)C1(C)C)C(c1ccc(Cl)cc1)Oc1ccccc1-3 (racemic) [Compound 379, (R/S)-5-(4-Chlorophenyl)-1,2,3,4-tetrahydro-2,2,3,3-tetramethyl-5H-chromeno[3,4-f]-4-quinolinone]	< 20	87	–	–	–
CC1=CC(C)(C)Nc2ccc(-c3cccc(Cl)c3Cl)cc21 [Compound 109, 6-(2,3-Dichlorophenyl)-1,2-dihydro-2,2,4-trimethylquinoline]	< 20	87	–	–	–
CC1(C)C=Cc2c(ccc3c2/C(=C/c2ccccc2)Oc2ccc(Cl)cc2-3)N1 [Compound 368, (Z)-5-Benzylidene-9-chloro-1,2-dihydro-2,2-dimethyl-5H-chromeno[3,4-f]quinoline]	183	< 20	–	–	–
CC1C(=O)C(C)(C)Nc2ccc3c(c21)/C(=C/c1cccc(F)c1)Oc1ccccc1-3 (racemic) [Compound 389, (Z)-(R/S)-5-(3-Fluorobenzylidene)-1,2,3,4-tetrahydro-2,2,4-trimethyl-5H-chromeno[3,4-f]-3-quinolinone]	133	< 20	–	–	–
CC1=CC(C)(C)Nc2ccc3c(c21)C(C)Oc1ccc(Cl)cc1-3 (racemic) [Compound 332, (R/S)-9-Chloro-1,2-dihydro-2,2,4,5-tetramethyl-5H-chromeno[3,4-f]quinoline]	138	< 20	–	–	–
CC1=CC(C)(C)Nc2ccc(-n3cnc(Cl)c3Cl)cc21 [Compound 103, 6-(4,5-Dichloroimidazol-1-yl)-1,2-dihydro-2,2,4-trimethylquinoline]	< 20	91	–	–	–
CC1=CC(C)(C)Nc2ccc3c(c21)/C(=C/c1ccccc1)Oc1ccccc1-3 [Compound 220, (Z)-5-Benzylidene-1,2-dihydro-2,2,4-trimethyl-5H-chromeno[3,4-f]quinoline]	147	< 20	–	–	–
CC1=CC(C)(C)Nc2ccc(-c3nn(C)cc3Br)cc21 [Compound 104, 6-(4-Bromo-1-methylpyrazol-3-yl)-1,2-dihydro-2,2,4-trimethylquinoline]	39	71	–	–	–
CCCO[C@@H]1[C@@H](C)c2c(ccc3c2[C@H](c2ccc(Cl)cc2)Oc2ccccc2-3)NC1(C)C (relative stereo) [Compound 400, (R/S-3l,4u,5u)-5-(4-Chlorophenyl)-1,2,3,4-tetrahydro-3-propyloxy-2,2,4-trimethyl-5H-chromeno[3,4-f]quinoline]	< 20	68	–	–	–
CC1=CC(C)(C)Nc2ccc(-c3cccc([N+](=O)[O-])c3)c(Cl)c21 [Compound 310, 5-Chloro-1,2-dihydro-2,2,4-trimethyl-6-(3-nitrophenyl)quinoline]	< 20	70	–	–	–
CC1=CC(C)(C)Nc2ccc3c(c21)/C(=C/c1ccccc1F)Oc1ccccc1-3 [Compound 228, (Z)-5-(2-Fluorobenzylidene)-1,2-dihydro-2,2,4-trimethyl-5H-chromeno[3,4-f]quinoline]	114	< 20	–	–	–
CCCCC1Oc2ccccc2-c2ccc3c(c21)C(C)C(O)(CCCC)C(C)(C)N3 (racemic) [Compound 385, (R/S)-3,5-Dibutyl-1,2,3,4-tetrahydro-3-hydroxy-2,2,4-trimethyl-5H-chromeno[3,4-f]quinoline]	27	45	–	–	–
CC1=CC(C)(C)Nc2ccc3c(c21)COc1c(Cl)cccc1-3 [Compound 331, (R/S)-7-Chloro-1,2-dihydro-2,2,4-trimethyl-5H-chromeno[3,4-f]quinoline]	< 20	88	–	–	–
CC1=CC(C)(C)Nc2cc(C)c3c(c21)/C(=C/c1ccccc1)Oc1ccc(F)cc1-3 [Compound 377, (Z)-5-Benzylidene-9-fluoro-1,2-dihydro-2,2,4,11-tetramethyl-5H-chromeno[3,4-f]quinoline]	101	< 20	–	–	–
CC1=CC(C)(C)Nc2ccc(-c3cc(F)cc(C#N)c3)cc21 [Compound 271, 6-(3-Cyano-5-fluorophenyl)-1,2-dihydro-2,2,4-trimethylquinoline]	–	–	na (key: na = not active (i.e. efficacy of <20 and potency of >10,000))	–	–
CC1CC(C)(C)Nc2ccc(-c3cc(F)cc(C#N)c3)cc21 (racemic) [Compound 455, (R/S)-6-(3-Cyano-5-fluorophenyl)-1,2,3,4-Tetrahydro-2,2,4-trimethylquinoline]	< 20	76	–	–	–
CC1=CC(C)(C)Nc2ccc3c(c21)/C(=C/c1ccccc1C)Oc1ccc(F)cc1-3 [Compound 374, (Z)-9-Fluoro-1,2-dihydro-2,2,4-trimethyl-5-(2-methylbenzylidene)-5H-chromeno[3,4-f]quinoline]	231	< 20	–	–	–
CC1=CC(C)(C)Nc2ccc3c(c21)/C(=C/c1ccc(F)cc1)Oc1ccccc1-3 [Compound 221, (Z)-5-(4-Fluorobenzylidene)-1,2-dihydro-2,2,4-trimethyl-5H-chromeno[3,4-f]quinoline]	105	< 20	–	–	–
CC(=O)[C@H]1CC[C@H]2[C@@H]3CCC4=CC(=O)CC[C@]4(C)[C@H]3CC[C@]12C [Prog, progesterone, reference compound]	100	< 20	–	–	–
CC1=CC(C)(C)Nc2c(F)cc(-c3cccc([N+](=O)[O-])c3)cc21 [Compound 291, 8-Fluoro-1,2-dihydro-2,2,4-trimethyl-6-(3-nitrophenyl)quinoline]	< 20	79	–	–	–
CC1C(=O)C(C)(C)Nc2ccc(-c3cc(F)cc(C#N)c3)cc21 (stereo not drawn) [Compound 286, 6-(3-Cyano-5-fluorophenyl)-1,2-dihydro-2,2,4-trimethyl-3-quinolone]	< 20	84	–	–	–
CC1(C)C=Cc2c(ccc3c2c(=O)oc2ccc(Cl)cc23)N1 [Compound 313, 9-Chloro-1,2-dihydro-2,2-dimethyl-5-coumarino[3,4-f]quinoline]	–	–	–	26	94
